Columns and labels:
rgRSV224 virus = assay: Antiviral activity: rgRSV224 (GFP-expressing RSV) replication in HeLa cells, GFP expression measured three days post-virus exposure; assay type: cell-based; conditions: human respiratory syncytial virus, 72 h, read-out: WT activity pEC50 (converted)
Experimental: (§1) Black 96-well clear-bottom microtiter plates (Corning, Amsterdam, The Netherlands) were filled in duplicate using a customized robot system with serial 4-fold dilutions of compound in a final volume of 50 μl culture medium [RPMI medium without phenol red, 10% FBS, 0.04% gentamycin (50 mg/ml) and 0.5% DMSO]. Then, 100 μl of a HeLa cell suspension (5×10^4 cells/ml) in culture medium was added to each well followed by the addition of 50 μl rgRSV224 (MOI=0.02) virus in culture medium using a multidrop dispenser (Thermo Scientific, Erembodegem, Belgium). rgRSV224 virus is an engineered virus that includes an additional GFP gene (Hallak et al, 2000) and was in-licensed from the NIH (Bethesda, Md., USA). Medium, virus- and mock-infected controls were included in each test. Cells were incubated at 37° C. in a 5% CO2 atmosphere. Three days post-virus exposure, viral replication was quantified by measuring GFP expression in the cells by a MSM laser microscope (Tibotec, Beerse, Belgium). The EC50 was defined as the 50% inhibitory concentration for GFP expression. In parallel, compounds were incubated for three days in a set of white 96-well microtitier plates (Corning) and the cytotoxicity of compounds in HeLa cells was determined by measuring the ATP content of the cells using the ATPlite kit (PerkinElmer, Zaventem, Belgium) according to the manufacturer's instructions. The CC50 was defined as the 50% concentration for cytotoxicity.

in vitro = assay type: cell-based; conditions: human
Experimental: as §1

SMILES | melting point | EC50 (rgRSV224 virus) | CC50 at 3 days (in vitro)
O=c1n(Cc2nc3nc(Cl)ccc3n2CCCCF)c2cnccc2n1-c1nccs1 | 238 °C |  | 
CC(C)(C)OC(=O)N1CC(n2c(=O)n(Cc3cc4cc(Cl)ccc4n3CCCS(C)(=O)=O)c3cnccc32)C1 [Compound P1, tert-butyl-3-(3-((5-chloro-1-(3-(methylsulfonyl)propyl)-1H-indol-2-yl)methyl)-2-oxo-2,3-dihydro-1H-imidazo[4,5-c]pyridin-1-yl)azetidine-1-carboxylate] | 195 °C | 5.01 nM | 50100 nM
CC(C)(C)OC(=O)N1CC(n2c(=O)n(Cc3cc4cc(Cl)ccc4n3CCCS(C)(=O)=O)c3cc(F)ccc32)C1 [Compound P2, tert-butyl 3-(3-((5-chloro-1-(3-(methylsulfonyl)propyl)-1H-indol-2-yl)methyl)-5-fluoro-2-oxo-2,3-dihydro-1H-benzo[d]imidazol-1-yl)azetidine-1-carboxylate] | 185 °C | 12.6 nM | 10000 nM
CS(=O)(=O)CCCn1c(Cn2c(=O)n(C3CN(S(C)(=O)=O)C3)c3ccncc32)cc2cc(Cl)ccc21 [Compound P5, 3-((5-chloro-1-(3-(methylsulfonyl)propyl)-1H-indol-2-yl)methyl)-1-(1-(methylsulfonyl)azetidin-3-yl)-1H-imidazo[4,5-c]pyridin-2(3H)-one] | 240 °C | 1.58 nM | 100000 nM
CC(=O)N1CC(n2c(=O)n(Cc3cc4cc(Cl)ccc4n3CCCS(C)(=O)=O)c3cnccc32)C1 [Compound P6, 1-(1-acetylazetidin-3-yl)-3-((5-chloro-1-(3-(methylsulfonyl)propyl)-1H-indol-2-yl)methyl)-1H-imidazo[4,5-c]pyridin-2(3H)-one] | 252 °C | 3.98 nM | > 25100 nM
CC(C)(C)n1c(=O)n(Cc2cc3cc(Cl)ccc3n2CCCS(C)(=O)=O)c2cnccc21 [Compound P8, 1-tert-butyl-3-((5-chloro-1-(3-(methylsulfonyl)propyl)-1H-indol-2-yl)methyl)-1H-imidazo[4,5-c]pyridin-2(3H)-one] | 226 °C | 2.51 nM | 39800 nM
O=c1n(Cc2cc3cc(Cl)ccc3n2CCCCF)c2cnccc2n1-c1nccs1 [Compound P11, 3-((5-chloro-1-(4-fluorobutyl)-1H-indol-2-yl)methyl)-1-(thiazol-2-yl)-1H-imidazo[4,5-c]pyridin-2(3H)-one] | 240 °C | 12.6 nM | > 25100 nM
COc1ccc(-n2c(=O)n(Cc3cc4cc(Cl)ccc4n3CCCC#N)c3cnccc32)cc1OC [Compound P19, 4-(5-chloro-2-((1-(3,4-dimethoxyphenyl)-2-oxo-1H-imidazo[4,5-c]pyridin-3(2H)-yl)methyl)-1H-indol-1-yl)butanenitrile] | 176.51 °C | 0.126 nM | > 100000 nM
COC(=O)c1ccc(-n2c(=O)n(Cc3cc4cc(Cl)ccc4n3CCCC#N)c3cnccc32)cc1 [Compound P51, methyl 4-(3-((5-chloro-1-(3-cyanopropyl)-1H-indol-2-yl)methyl)-2-oxo-2,3-dihydro-1H-imidazo[4,5-c]pyridin-1-yl)benzoate] |  | 0.794 nM | 39800 nM
N#CCCCn1c(Cn2c(=O)n(-c3ccc(C(=O)O)cc3)c3ccncc32)cc2cc(Cl)ccc21 [Compound P52, 4-(3-((5-chloro-1-(3-cyanopropyl)-1H-indol-2-yl)methyl)-2-oxo-2,3-dihydro-1H-imidazo[4,5-c]pyridin-1-yl)benzoic acid] |  | 0.501 nM | > 25100 nM
N#CCCCn1c(Cn2c(=O)n(-c3ccc(C(=O)NC4CC4)cc3)c3ccncc32)cc2cc(Cl)ccc21 [Compound P53, 4-(3-((5-chloro-1-(3-cyanopropyl)-1H-indol-2-yl)methyl)-2-oxo-2,3-dihydro-1H-imidazo[4,5-c]pyridin-1-yl)-N-cyclopropylbenzamide] |  | 0.501 nM | 25100 nM
